From patent US8153410B2, “Alternate morpheein forms of allosteric proteins as a target for the development of bioactive molecules” (Fox Chase Cancer Center, priority 2003, dated 2012) come the findings set out here.

Assay [1] addresses T1, pea PBGS (Pisum sativum, UniProt P30124, C394A).
T1 construct: made in house
Description: native PAGE gel shift of pea PBGS octamer/hexamer equilibrium. It is filed as biochemical. The conditions noted are these: pea PBGS C326A hexamer, rosmarinic acid 12.5 μM-12.5 mM preincubated 30 min 37 C, then 1 mM ALA and 1 mM MgCl2. As for the experimental part: (§1) FIG. 32(a) The inhibitor morphlock-1 is illustrated as posed by Glide. The subunits A, B, and E are illustrated as ribbon diagram. Morphlock-1 is shown with carbon atoms and illustrated as ball and stick. FIG. 32(b) The chemical structure of morphlock-1. […] Pea PBGS was incubated with various concentrations of morphlock-1 (in a DMSO solution). Each concentration of morphlock-1 with a fixed amount of DMSO was incubated with protein for 30 minutes at 37° C. prior to resolution on 12.5% polyacrylamide native PhastGels. […] (d) The protein concentration dependence of pea PBGS specific activity is illustrated. PBGS (at varied concentrations) was incubated in the presence of DMSO (●) or 50 μM morphlock-1 in DMSO (∘) for 30 minutes at 37° C. prior to assay. The final concentration of morphlock-1 in the inhibited assay was 5 μM, and the concentration of PBGS in the inhibited and control assays ranged from 0.05-50 μg/mL (0.014-1.4 μM).
FIG. 34(b) Hexameric pea PBGS (1 mg/mL, prepared by dialysis against low ionic strength) was incubated with DMSO (left) or 500 μM morphlock-1 (right) for 30 minutes at 37° C. ALA was added at the indicated concentrations, and the incubation was continued for 30 minutes prior to resolution on 12.5% polyacrylamide native PhastGels. […] Morphlock-1 concentrations are listed at the top of each lane. Protein samples for left-most gel were at 50 μg/ml (1.4 μM subunit) and 1 mM ALA; protein detection is by silver staining. Samples for the middle gel were also at 50 μg/ml (1.4 μM subunit) and 1 mM ALA; the gel was activity stained. Samples for the right-most gel were at 5 μg/ml (0.14 μM subunit) and 10 mM magnesium; protein detection is by Krypton Infrared staining.
FIG. 41 illustrates native PAGE screening of compounds. Octameric PBGS (1 mg/mL) was incubated with DMSO or 2 mM of each compound for 30 minutes at 37° C. prior to resolution on 12.5% polyacrylamide native PhastGels. […] Each compound is identified by its box address. The compound B6 is morphlock-1.
The interconversion of pea PBGS hexamer and octamer is a dynamic equilibrium that responds to protein concentration, substrate concentration, magnesium concentration, inhibitor concentration, and ionic strength.

Assay [2] addresses T2, pea PBGS (Pisum sativum, UniProt P30124).
T2 sequence (P30124 69-398 limits assumed): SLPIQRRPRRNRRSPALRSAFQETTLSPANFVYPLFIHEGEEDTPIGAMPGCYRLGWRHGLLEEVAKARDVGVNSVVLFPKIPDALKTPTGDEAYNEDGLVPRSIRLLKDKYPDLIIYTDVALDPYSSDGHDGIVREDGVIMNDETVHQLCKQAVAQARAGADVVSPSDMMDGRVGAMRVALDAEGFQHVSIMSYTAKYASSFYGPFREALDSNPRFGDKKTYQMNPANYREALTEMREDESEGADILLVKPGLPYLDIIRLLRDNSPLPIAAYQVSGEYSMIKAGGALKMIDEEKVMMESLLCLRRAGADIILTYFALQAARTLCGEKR
Description: pea PBGS activity assay (inhibition, protein concentration dependent specific activity). The arrangement: made in house. It is filed as biochemical. As for the experimental part: as §1, with “PBGS (at varied concentrations) was incubated in the presence of DMSO (●) or 50 μM morphlock-1 in DMSO (∘) for 30 minutes at 37° C. prior to assay.” left out
The proteins were incubated in the presence of 10× inhibitor for 30 minutes at 37° C. prior to assay. The concentrations on the X-axis represent the final concentration of morphlock-1 in the assay. FIG. 33(b). […] IC50 values were determined as per part (a) using the noted concentrations of pea PBGS. (c) Native PAGE evaluation of the effect of morphlock-1 on the quaternary structure equilibria of PBGS (˜1 mg/ml) from D. melanogaster, P. aeruginosa, V. cholerae, and H. sapiens. Note that the charge/mass ratio is not the same for PBGS from different species.
The dose response curve for morphlock-1 inhibition of pea PBGS (FIG. 37a) was initially carried out at 0.03 μM pea PBGS, where the hexamer is a significant component of the equilibrium mixture; the morphlock-1 concentration was varied from 0.1 μM to 0.1 mM.
The dose response curve for morphlock-1 inhibition of pea PBGS (FIG. 33(a)) was initially carried out at 0.03 μM pea PBGS, where the hexamer is a significant component of the equilibrium, in order to optimize the observed inhibition; the morphlock-1 concentration was varied from 0.1 μM to 0.1 mM.

One may read the IC50 as the concentration at which inhibition is half-maximal. Low values mean higher potency, high ones lower potency.

Entries after “also recorded” stand apart in the source; their conditions may differ.

T1 sequence (P30124 69-398 C394A): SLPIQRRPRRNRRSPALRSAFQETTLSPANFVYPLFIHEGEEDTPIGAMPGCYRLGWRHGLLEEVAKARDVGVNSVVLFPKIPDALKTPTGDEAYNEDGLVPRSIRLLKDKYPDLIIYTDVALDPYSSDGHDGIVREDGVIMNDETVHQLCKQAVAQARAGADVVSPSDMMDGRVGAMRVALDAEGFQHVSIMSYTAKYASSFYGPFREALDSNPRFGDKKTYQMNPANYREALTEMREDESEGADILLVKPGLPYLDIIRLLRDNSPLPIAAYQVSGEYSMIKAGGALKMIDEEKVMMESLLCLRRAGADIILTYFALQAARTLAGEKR

In the case of `O=C(/C=C/c1ccc(O)c(O)c1)O[C@H](Cc1ccc(O)c(O)c1)C(=O)O` [rosmarinic acid, benzenepropanoic acid, α-[[(2E)-3-(3,4-dihydroxyphenyl)-1-oxo-2-propenyl]oxy]-3,4-dihydroxy-, (αR)-(9CI), reference compound], the “native gel: conversion of hexamer to octamer by ALA and magnesium” value at pea PBGS [1] was “prevent conversion of the hexamer to the octamer; also recorded: stabilizes the hexameric pea PBGS against conversion to the octamer”. On pea PBGS [2], the IC50 was around 63 µM and the “mode of inhibition (dependence on preincubation time)” value is given as “slow-binding inhibitor”. Also, the “PBGS concentration giving half maximal specific activity after rosmarinic acid treatment” value at pea PBGS [2] (30 minute treatment with 30 μM rosmarinic acid, untreated 3.5 μg/ml) worked out at 13.5 µg/mL.
